# Measurements taken from patent publication US9439426B2, “Active compound combinations comprising carboxamide derivatives and a biological control agent” (BAYER CROPSCIENCE AG, priority 2012, dated 2016).
# Columns and labels:
# Puccinia triticina = experiment: Puccinia triticina-test (wheat)/preventive; type: in vivo; settings: preventive, 30 ppm a.i., evaluated 8 days after inoculation
# Method: (§1) The commercially available compounds SERENADE-MAX®, SONATA®, active compounds (1 part by weight) solved in N,N-dimethylacetamide (49 parts by weight) and alkylaryl polyglycol ether (1 part by weight), or combinations thereof were diluted with water to the desired concentration.
# (§2) To test for preventive activity, young plants are sprayed with the preparation of active compound or active compound combination at the stated rate of application.
# After the spray coating has been dried, the plants are sprayed with a spore suspension of Puccinia triticina. The plants remain for 48 hours in an incubation cabinet at approximately 20° C. and a relative atmospheric humidity of approximately 100%.
# (§3) The plants are placed in the greenhouse at a temperature of approximately 20° C. and a relative atmospheric humidity of approximately 80%.
# (§4) The test is evaluated 8 days after the inoculation. 0% means an efficacy which corresponds to that of the untreated control, while an efficacy of 100% means that no disease is observed.
# Pyrenophora teres = experiment: Pyrenophora teres-test (barley)/preventive; type: in vivo; settings: preventive, 30 ppm a.i., evaluated 8 days after inoculation
# Method: as §1, §2
# After the spray coating has been dried, the plants are sprayed with a spore suspension of Pyrenophora teres. The plants remain for 48 hours in an incubation cabinet at approximately 20° C. and a relative atmospheric humidity of approximately 100%.
# as §3, §4
# Septoria tritici = experiment: Septoria tritici-test (wheat)/preventive; type: in vivo; settings: preventive, 30 ppm a.i., evaluated 21 days after inoculation
# Method: as §1, §2
# After the spray coating has been dried, the plants are sprayed with a spore suspension of Septoria tritici. The plants remain for 48 hours in an incubation cabinet at approximately 20° C. and a relative atmospheric humidity of approximately 100% and afterwards for 60 hours at approximately 15° C. in a translucent incubation cabinet at a relative atmospheric humidity of approximately 100%.
# The plants are placed in the greenhouse at a temperature of approximately 15° C. and a relative atmospheric humidity of approximately 80%.
# The test is evaluated 21 days after the inoculation. 0% means an efficacy which corresponds to that of the untreated control, while an efficacy of 100% means that no disease is observed.
# [1] = log P by HPLC on reversed-phase column (C 18), EEC Directive 79/831 Annex V.A8; type: physicochemical; settings: reversed-phase HPLC column (C 18), 40° C., 0.1% aqueous formic acid and acetonitrile
# Method: In table 1, the log P values were determined in accordance with EEC Directive 79/831 Annex V.A8 by HPLC (High Performance Liquid Chromatography) on a reversed-phase column (C 18), using the method described below:
# Temperature: 40° C.; Mobile phases: 0.1% aqueous formic acid and acetonitrile; linear gradient from 10% acetonitrile to 90% acetonitrile.
# Calibration was carried out using unbranched alkan-2-ones (comprising 3 to 16 carbon atoms) with known log P values (determination of the log P values by the retention times using linear interpolation between two successive alkanones). lambda-max-values were determined using UV-spectra from 200 nm to 400 nm and the peak values of the chromatographic signals.
Compound,Efficacy in % found (Puccinia triticina) [%],Efficacy in % found (Pyrenophora teres) [%],Efficacy in % found (Septoria tritici) [%],chromatographic logP [1]
"CC(C)c1ccc(Cl)cc1CN(C(=O)c1c(C(F)F)nn(C)c1F)C1CC1 [A5, N-(5-chloro-2-isopropylbenzyl)-N-cyclopropyl-3-(difluoromethyl)-5-fluoro-1-methyl-1H-pyrazole-4-carboxamide]",67,78,60,–
"CC(C)c1ccccc1CN(C(=S)c1c(C(F)F)nn(C)c1F)C1CC1 [A20, N-cyclopropyl-3-(difluoromethyl)-5-fluoro-N-(2-isopropylbenzyl)-1-methyl-1H-pyrazole-4-carbothioamide]",–,–,–,4.36
